According to US12186283B2, “Bismuth-thiol compositions and methods of use” (Microbion Corporation, priority 2018, dated 2025):
Values after ≈ are worked out from the molar mass of the structure shown. Like-named read-outs stand apart in the source and are kept apart here.

How the values were obtained:
[1] = test system: Burkholderia cepacia complex; assay: Checkerboard FIC assay, BisEDT with CF agents (Example 10); assay type: cell-based, Burkholderia spp.; details: B. cenocepacia isolate 0548; agent alone, as observed during FIC testing
[2] = test system: P. aeruginosa; details: P. aeruginosa isolate 103, CLSI QC range in parenthesis, cited from earlier work
[3] = test system: Pseudomonas aeruginosa; details: P. aeruginosa ATCC 27853, QC organism; cited from earlier work
[4] = test system: P. aeruginosa; assay: Broth microdilution MIC (Example 10)
[5] = test system: Burkholderia cepacia complex; assay: Broth microdilution MIC (Example 10); details: initial MIC testing
[6] = test system: Escherichia coli; assay: Broth microdilution MIC (Example 12)
[7] = test system: Klebsiella pneumoniae; assay: Broth microdilution MIC (Example 12)
[8] = test system: Pseudomonas aeruginosa; assay: Broth microdilution MIC (Example 12)
[9] = test system: Acinetobacter baumannii; assay: Broth microdilution MIC (Example 12)

In the case of `NCC[C@H](O)C(=O)N[C@@H]1C[C@H](N)[C@@H](O[C@H]2O[C@H](CN)[C@@H](O)[C@H](O)[C@H]2O)[C@H](O)[C@H]1O[C@H]1O[C@H](CO)[C@@H](O)[C@H](N)[C@H]1O` [AMK], the MIC [1] is given as […], the “MIC, CLSI QC range” value ([2]; Table 24) is given as “(1-4) μg/mL” and the “MIC, CLSI QC range” value ([2]; Table 26) is given as “(1-4) μg/mL”. The “MIC, QC range” value [3] was “(1-4) μg/mL”, the MIC ([4]; P. aeruginosa isolate 103 (ATCC 25922), QC strain, initial MIC testing) was 2 µg/mL (≈ 3.42 µM) and the MIC ([4]; P. aeruginosa isolate 103 (ATCC 25922), during FIC testing, each agent tested alone for QC, one replicate) was 4 µg/mL. For the same molecule, the MIC ([4]; P. aeruginosa isolate 1497 (TOB-R, AMK-R, CIP-I, AZT-R, COL-R), initial MIC testing) was 64 µg/mL (≈ 109 µM), the MIC ([4]; P. aeruginosa isolate 1530 (TOB-R, AMK-R, CIP-R), initial MIC testing) was 64 µg/mL (≈ 109 µM) and the MIC ([4]; P. aeruginosa isolate 1553 (TOB-R, AMK-R, CIP-R), initial MIC testing) was 64 µg/mL (≈ 109 µM). For the same molecule, the MIC ([4]; P. aeruginosa isolate 6322 (MEM-R, TOB-R, AMK-R, CIP-R, AZT-R), initial MIC testing) was 64 µg/mL (≈ 109 µM), the MIC ([4]; P. aeruginosa isolate 6977 (MEM-I, TOB-R, CIP-R, AZT-I), initial MIC testing) was 16 µg/mL (≈ 27.3 µM) and the MIC ([4]; P. aeruginosa isolate 7745 (MEM-R, CIP-R, AZT-R), initial MIC testing) was 4 µg/mL (≈ 6.83 µM). It also gave an MIC ([4]; P. aeruginosa isolate 7754 (MEM-R, TOB-R, CIP-R, AZT-I), initial MIC testing) of 8 µg/mL (≈ 13.7 µM), an MIC ([4]; P. aeruginosa isolate 7762 (MEM-I, CIP-I), initial MIC testing) of 8 µg/mL (≈ 13.7 µM) and an MIC ([4]; P. aeruginosa isolate 7871 (MEM-R, AZT-I), initial MIC testing) of 2 µg/mL (≈ 3.42 µM). The MIC ([4]; P. aeruginosa isolate 7874, initial MIC testing) was 2 µg/mL (≈ 3.42 µM), the MIC ([4]; P. aeruginosa isolate 7886 (MEM-R, CIP-R, AZT-R), initial MIC testing) was 8 µg/mL (≈ 13.7 µM) and the MIC ([4]; P. aeruginosa isolate 8797 (MEM-R, TOB-R, AMK-R, CIP-R, AZT-R, COL-R), initial MIC testing) was greater than 256 µg/mL. For the same molecule, the MIC ([4]; P. aeruginosa isolate 8798 (MEM-R, TOB-R, AMK-R, CIP-R, AZT-R, COL-R), initial MIC testing) was […], the MIC ([4]; P. aeruginosa isolate 9108 (CIP-R, AZT-I), initial MIC testing) was 4 µg/mL (≈ 6.83 µM) and the MIC ([5]; B. cenocepacia isolate 0548 (CIP-R)) was 256 µg/mL (≈ 437 µM). The MIC ([5]; B. cenocepacia isolate 1631) was 256 µg/mL (≈ 437 µM), the MIC ([5]; B. cenocepacia isolate 1783) was 256 µg/mL (≈ 437 µM) and the MIC ([5]; B. cenocepacia isolate 8555) was 256 µg/mL (≈ 437 µM). It also gave an MIC ([5]; B. cepacia isolate 0546) of 64 µg/mL (≈ 109 µM), an MIC ([5]; B. cepacia isolate 1793) of 64 µg/mL (≈ 109 µM) and an MIC ([5]; B. cepacia isolate 9040) of 8 µg/mL (≈ 13.7 µM). It also gave an MIC ([5]; B. multivorans isolate 5665 (CIP-I)) of 256 µg/mL (≈ 437 µM), an MIC ([6]; E. coli ATCC 25922, QC organism) of 1 µg/mL (≈ 1.71 µM) and an MIC ([6]; E. coli ATCC 35218, QC organism) of 1 µg/mL (≈ 1.71 µM). It also gave an MIC ([6]; Escherichia coli ATCC 35218, ESBL) of 1 µg/mL (≈ 1.71 µM), an MIC ([6]; Escherichia coli ATCC BAA-2471, NDM) of 64 µg/mL (≈ 109 µM) and an MIC ([6]; Escherichia coli CDC 114, ESBL/KPC) of 1 µg/mL (≈ 1.71 µM). For the same molecule, the MIC ([6]; Escherichia coli CDC 118, ESBL/NDM) was greater than 64 µg/mL, the MIC ([6]; Escherichia coli CDC 435, NDM) was greater than 64 µg/mL and the MIC ([6]; Escherichia coli CDC 451, KPC) was 4 µg/mL (≈ 6.83 µM). For the same molecule, the MIC ([6]; Escherichia coli CDC 503, ESBL/NDM) was greater than 64 µg/mL, the MIC ([6]; Escherichia coli MMX 5745, KPC) was 0.5 µg/mL (≈ 0.854 µM) and the MIC ([6]; Escherichia coli MMX 5755, ESBL) was 16 µg/mL (≈ 27.3 µM). It also gave an MIC ([6]; Escherichia coli MMX 5756, ESBL) of 64 µg/mL (≈ 109 µM), an MIC ([6]; Escherichia coli MMX 5758, ESBL) of 1 µg/mL (≈ 1.71 µM) and an MIC ([7]; K. pneumoniae ATCC BAA-1705, QC organism) of 16 µg/mL (≈ 27.3 µM). It also gave an MIC ([7]; Klebsiella pneumoniae ATCC BAA-1705, ESBL/KPC) of 16 µg/mL (≈ 27.3 µM), an MIC ([7]; Klebsiella pneumoniae CDC 112, KPC) of 16 µg/mL (≈ 27.3 µM) and an MIC ([7]; Klebsiella pneumoniae CDC 113, ESBL/KPC) of 16 µg/mL (≈ 27.3 µM). For the same molecule, the MIC ([7]; Klebsiella pneumoniae CDC 115, ESBL/KPC) was 0.5 µg/mL (≈ 0.854 µM), the MIC ([7]; Klebsiella pneumoniae CDC 120, ESBL/KPC) was 16 µg/mL (≈ 27.3 µM) and the MIC ([7]; Klebsiella pneumoniae CDC 126, ESBL/KPC) was 2 µg/mL (≈ 3.42 µM). It also gave an MIC ([7]; Klebsiella pneumoniae CDC 129, ESBL/KPC) of […], an MIC ([7]; Klebsiella pneumoniae CDC 135, ESBL/VIM) of 16 µg/mL (≈ 27.3 µM) and an MIC ([7]; Klebsiella pneumoniae CDC 138, ESBL/NDM) greater than 64 µg/mL. For the same molecule, the MIC ([7]; Klebsiella pneumoniae CDC 158, ESBL/NDM/OXA) was 2 µg/mL (≈ 3.42 µM), the MIC ([7]; Klebsiella pneumoniae MMX 9029, ESBL) was 0.5 µg/mL (≈ 0.854 µM) and the MIC ([8]; P. aeruginosa ATCC 27853, QC organism) was 2 µg/mL (≈ 3.42 µM). It also gave an MIC ([8]; Pseudomonas aeruginosa CDC 230, VIM/OXA) greater than 64 µg/mL, an MIC ([8]; Pseudomonas aeruginosa CDC 231, KPC/OXA) of 8 µg/mL (≈ 13.7 µM) and an MIC ([8]; Pseudomonas aeruginosa CDC 241, IMP/OXA) of […]. It also gave an MIC ([8]; Pseudomonas aeruginosa CDC 246, NDM/OXA) greater than 64 µg/mL, an MIC ([8]; Pseudomonas aeruginosa CDC 250, NDM/OXA) greater than 64 µg/mL and an MIC ([8]; Pseudomonas aeruginosa CDC 356, KPC) of 2 µg/mL (≈ 3.42 µM). For the same molecule, the MIC ([8]; Pseudomonas aeruginosa CDC 439, IMP) was greater than 64 µg/mL, the MIC ([8]; Pseudomonas aeruginosa CDC 444, VIM) was greater than 64 µg/mL and the MIC ([8]; Pseudomonas aeruginosa CDC 457, VIM) was 2 µg/mL (≈ 3.42 µM). The MIC ([8]; Pseudomonas aeruginosa CDC 516, KPC/AmpC) was 2 µg/mL (≈ 3.42 µM), the MIC ([8]; Pseudomonas aeruginosa CDC 518, KPC/AmpC) was 16 µg/mL (≈ 27.3 µM) and the MIC ([9]; Acinetobacter baumannii CDC 273, ESBL/OXA) was greater than 64 µg/mL. For the same molecule, the MIC ([9]; Acinetobacter baumannii CDC 274, ESBL/OXA) was 16 µg/mL (≈ 27.3 µM), the MIC ([9]; Acinetobacter baumannii CDC 275, ESBL/OXA) was greater than 64 µg/mL and the MIC ([9]; Acinetobacter baumannii CDC 277, ESBL/OXA) was 16 µg/mL (≈ 27.3 µM). The MIC ([9]; Acinetobacter baumannii CDC 284, ESBL/OXA) was […], the MIC ([9]; Acinetobacter baumannii CDC 307, OXA) was greater than 64 µg/mL and the MIC ([9]; Acinetobacter baumannii CDC 308, ESBL/OXA) was greater than 64 µg/mL. For the same molecule, the MIC ([9]; Acinetobacter baumannii CDC 311, OXA) was greater than 64 µg/mL, the MIC ([9]; Acinetobacter baumannii CDC 312, OXA) was 1 µg/mL (≈ 1.71 µM) and the MIC ([9]; Acinetobacter baumannii CDC 313, ESBL/OXA) was 4 µg/mL (≈ 6.83 µM). The MIC ([9]; Acinetobacter baumannii NCTC 13304, OXA) was 0.5 µg/mL (≈ 0.854 µM).
